Counter-ions that a name gives are not always drawn.
Experiments:
[1] = test system: P388 lymphocytic leukemia; assay: Growth inhibition of tumor cells of P388 lymphocytic leukemia in vitro; assay type: cell-based, mouse (CDF1); conditions: Mus musculus, 48 hours at 37° C., read-out: 50% Inhibitory concentration of cell growth (IC50)
Method: (I) Growth Inhibition of Tumor Cells of P388 Lymphocytic Leukemia in Vitro:
Tumor cells were collected aseptically with capillary tube from ascites in CDF1 female mice transplanted intraperitoneally with 1×10^6cells of P388 lymphocytic leukemia 5 days before. Cell suspension was prepared at 5×10^4 cells/0.5 ml in a RPMI1640 medium supplemented with 10% fetal calf serum, kanamycin (0.1 mg/ml) and 2-hydroxyethyldisulfide (0.01 mM). Each test sample was dissolved or suspended in the medium at a concentration of 1×10^-1 -1×10^-5 mM.
A test tube with Molton stopper loosely involving 0.5 ml each of the cell suspension and the sample suspension was kept for 48 hours at 37° C. in an incubator supplied with air containing 5% carbon dioxide. […] The cells harvested therefrom was counted by using of a Coulter Counter and the inhibition of cell growth was calculated by the following formula:
Growth Inhibition (%)=(1-T/C)×100
T: number of cells in the culture containing test sample
C: number of cells in the culture of control

[2] = test system: V79 cells; assay: Inhibitory effect on colony formation of V79 cells in vitro; assay type: cell-based, Chinese hamster; conditions: Cricetulus griseus, 96 hours with sample, read-out: 90% inhibitory concentration (IC90)
Method: (II) Inhibitory effect on Colony Formation of V79 Cells in Vitro:
V79 cells established from Chinese hamster lung fibroblastoma were cultured routinely on plastic dishes (.phi. 60 mm) in RPMI 1640 medium supplemented with 10% fetal calf serum and kanamycin (0.1 mg/ml). Each confluent culture was then trypsinized by the addition of 1 ml of trypsin-EDTA solution (supplied by the firm GIBCO) for 5 minutes at 37° C. in an incubator supplied with humidified air containing 5% CO2.
Homogeneous suspension of V79 cells thus obtained was diluted to 100, 200 and 400 viable cells/ml with the medium, and 1 ml each of them was transferred to other plastic dishes (.phi. 60 mm) containing 1.85 ml of the medium, and diluted to 100, 200 and 400 viable cells/dish.
Each test sample was dissolved in DMSO at the concentration of 20 mM and diluted with the medium to the final concentration of 2×10^-3 -2×10^-10 mM.
Each test dish was kept for 24 hours at 37° C. in an incubator supplied with humidified air containing 5% CO2, and was further cultured for 96 hours after 150 μl of the sample solution was added thereto.
The cells were gently washed once with Mg- and Ca-free phosphate-buffered saline [PBS(-)] and fixed with 1 ml of 3.5% HCHO-PBS(-) solution for 2 hours, then stained with a crystal violet ethanol solution.
The 90% inhibitory concentration (IC90) was calculated by comparing the number of visible colonies on the sample dish with that on the control dish.

[3] = test system: P388 lymphocytic leukemia; assay: Increase in life span on P388 lymphocytic leukemia tumor-transplanted mouse; assay type: in vivo, mouse (CDF1); conditions: P388, ip, 24 h, intraperitoneal, day 1 and 5th day after transplantation, read-out: Rate of increase in life span (ILS); for ILS at 2.5 mg/kg: daily dose 2.5 mg/kg; for ILS at 2.2 mg/kg: daily dose 2.2 mg/kg; for ILS at 3 mg/kg: daily dose 3.0 mg/kg
Method: (III) Increase in Life Span on P388 Lymphocytic Leukemia Tumor-transplantedMouse:
The treated group to which the test sample was administered consisted of seven mice, while the control group consisted of ten mice. Six weeks old male mice (CDF1, 25±2 g of body weight) were employed as host animals.
Tumor cells (1.0×10^6) of P388 lymphocytic leukemia were transplanted intraperitoneally into each mouse. The treatment was effected one day after the transplantation and on 5th day by administering prescribed dose of each test sample intraperitoneally to the mice.
Antitumor activity of the test sample was evaluated by the rate of increase in life span (ILS) which was calculated with the following formula.
T': median survival time of treated mice
C': median survival time of control mice

Compound	IC50 [1] [nM]	IC90 [2] [nM]	other results
CC(=O)OCN1C(=O)CN([C@@H](C)[C@@H](C)N2CC(=O)NC(=O)C2)CC1=O (relative stereo) [Sample 9, erythro-2-(4-acetoxymethyl-3,5-dioxopiperazin-1-yl)-3-(3,5-dioxopiperazin-1-yl)butane]	74	–	–
C[C@H]([C@H](C)N1CC(=O)N(COC(=O)Cc2ccccc2Cl)C(=O)C1)N1CC(=O)NC(=O)C1 (relative stereo) [Sample 10, erythro-2-[4-(2-chlorophenylacetoxymethyl)-3,5-dioxopiperazin-1-yl]-3-(3,5-dioxopiperazin-1-yl)butane]	7.1	0.073	ILS at 2.5 mg/kg [3]: 162%
C[C@H]([C@H](C)N1CC(=O)N(COC(=O)COc2ccc(Cl)cc2Cl)C(=O)C1)N1CC(=O)NC(=O)C1 (relative stereo) [Sample 11, erythro-2-[4-(2,4-dichlorophenoxyacetoxymethyl)-3,5-dioxopiperazin-1-yl]-3-(3,5-dioxopiperazin-1-yl)butane]	77	0.082	ILS at 2.7 mg/kg ([3]; daily dose 2.7 mg/kg): 132%
C[C@H]([C@H](C)N1CC(=O)N(COC(=O)c2ccccc2)C(=O)C1)N1CC(=O)NC(=O)C1 (relative stereo) [Sample 13, erythro-2-(4-benzoyloxymethyl-3,5-dioxopiperazin-1-yl)-3-(3,5-dioxopiperazin-1-yl)butane]	38	–	ILS at 2.2 mg/kg [3]: 118%
C[C@H]([C@H](C)N1CC(=O)N(COC(=O)OCc2ccc([N+](=O)[O-])cc2)C(=O)C1)N1CC(=O)NC(=O)C1 (relative stereo) [Sample 15, erythro-2-[4-(4-nitrobenzyloxycarbonyloxymethyl)-3,5-dioxopiperazin-1-yl]-3-(3,5-dioxopiperazin-1-yl)butane]	240	–	ILS at 2.6 mg/kg ([3]; daily dose 2.6 mg/kg): 177%
C[C@H]([C@H](C)N1CC(=O)N(COC(=O)c2ccco2)C(=O)C1)N1CC(=O)NC(=O)C1 (relative stereo) [Sample 18, erythro-2-[4-(2-furoyloxymethyl)-3,5-dioxopiperazin-1-yl]-3-(3,5-dioxopiperazin-1-yl)butane]	42	0.1	ILS at 2.2 mg/kg [3]: 185%
C[C@H]([C@H](C)N1CC(=O)N(COC(=O)OCc2ccccc2)C(=O)C1)N1CC(=O)NC(=O)C1 (relative stereo) [Sample 19, erythro-2-(4-benzyloxycarbonyloxymethyl-3,5-dioxopiperazin-1-yl)-3-(3,5-dioxopiperazin-1-yl)butane]	11	0.09	ILS at 2.4 mg/kg ([3]; daily dose 2.4 mg/kg): 132%
CC(=O)OCN1C(=O)CN([C@H](C)[C@H](C)N2CC(=O)N(COC(C)=O)C(=O)C2)CC1=O [Sample 1, meso-2,3-bis(4-acetoxymethyl-3,5-dioxopiperazin-1-yl)butane]	300	0.089	ILS at 1.5 mg/kg ([3]; daily dose 1.5 mg/kg): 152%
C[C@H]([C@H](C)N1CC(=O)N(COC(=O)Cc2ccccc2Cl)C(=O)C1)N1CC(=O)N(COC(=O)Cc2ccccc2Cl)C(=O)C1 [Sample 2, meso-2,3-bis[4-(2-chlorophenylacetoxymethyl)-3,5-dioxopiperazin-1-yl]butane]	8.6	–	ILS at 3.4 mg/kg ([3]; daily dose 3.4 mg/kg): 107%
C[C@H]([C@H](C)N1CC(=O)N(COC(=O)COc2ccc(Cl)cc2Cl)C(=O)C1)N1CC(=O)N(COC(=O)COc2ccc(Cl)cc2Cl)C(=O)C1 [Sample 3, meso-2,3-bis[4-(2,4-dichlorophenoxyacetoxymethyl)-3,5-dioxopiperazin-1-yl]butane]	71	–	–
CC(C(C)N1CC(=O)N(COC(=O)C=Cc2cccc(Cl)c2)C(=O)C1)N1CC(=O)N(COC(=O)C=Cc2cccc(Cl)c2)C(=O)C1 (stereo not drawn) [Sample 4, meso-2,3-bis[4-(3-chlorocinnamoyloxymethyl)-3,5-dioxopiperazin-1-yl]butane]	240	–	–
C[C@H]([C@H](C)N1CC(=O)N(COC(=O)[C@H](NC(=O)OC(C)(C)C)c2ccccc2)C(=O)C1)N1CC(=O)N(COC(=O)[C@H](NC(=O)OC(C)(C)C)c2ccccc2)C(=O)C1 [Sample 5, meso-2,3-bis[4-[(R)-2-N-tert-butoxycarbonylamino-2-phenylacetoxymethyl]-3,5-dioxopiperazin-1-yl]butane]	32	–	–
C[C@H]([C@H](C)N1CC(=O)N(COC(=O)[C@H](N)c2ccccc2)C(=O)C1)N1CC(=O)N(COC(=O)[C@H](N)c2ccccc2)C(=O)C1 [Sample 6, meso-2,3-bis[4-[(R)-2-amino-2-phenylacetoxymethyl]-3,5-dioxopiperazin-1-yl]butane trifluoroacetate]	52	–	–
CC(C)COC(=O)OCN1C(=O)CN([C@H](C)[C@H](C)N2CC(=O)N(COC(=O)OCC(C)C)C(=O)C2)CC1=O [Sample 7, meso-2,3-bis(4-isobutoxycarbonyloxymethyl-3,5-dioxopiperazin-1-yl)butane]	84	0.0045	ILS at 3 mg/kg [3]: 104%
C[C@H]([C@H](C)N1CC(=O)N(COC(=O)OCc2ccc([N+](=O)[O-])cc2)C(=O)C1)N1CC(=O)N(COC(=O)OCc2ccc([N+](=O)[O-])cc2)C(=O)C1 [Sample 8, meso-2,3-bis[4-(4-nitrobenzyloxycarbonyloxymethyl)-3,5-dioxopiperazin-1-yl]butane]	150	–	–
CC(C(C)N1CC(=O)N(COC(=O)C=Cc2cccc(Cl)c2)C(=O)C1)N1CC(=O)NC(=O)C1 (stereo not drawn) [Sample 12, erythro-2-[4-(3-chlorocinnamoyloxymethyl)-3,5-dioxopiperazin-1-yl]-3-(3,5-dioxopiperazin-1-yl)butane]	11	0.098	ILS at 2.5 mg/kg [3]: 90%
C[C@H]([C@H](C)N1CC(=O)N(COC(=O)c2ccccc2)C(=O)C1)N1CC(=O)N(COC(=O)c2ccccc2)C(=O)C1 [Sample 16, meso-2,3-bis(4-benzoyloxymethyl-3,5-dioxopiperazin-1-yl)butane]	250	0.098	ILS at 3 mg/kg [3]: 150%
C[C@H]([C@H](C)N1CC(=O)N(COC(=O)OCc2ccccc2)C(=O)C1)N1CC(=O)N(COC(=O)OCc2ccccc2)C(=O)C1 [Sample 17, meso-2,3-bis(4-benzyloxycarbonyloxymethyl-3,5-dioxopiperazin-1-yl)butane]	56	–	ILS at 3.2 mg/kg ([3]; daily dose 3.2 mg/kg): 179%
CC(C)COC(=O)OCN1C(=O)CN(CCN2CC(=O)N(COC(=O)OCC(C)C)C(=O)C2)CC1=O [Sample A, 1,2-bis(4-isobutoxycarbonyloxymethyl-3,5-dioxopiperazin-1-yl)ethane, reference compound]	16000	110	ILS at 3 mg/kg [3]: 5%; ILS at 250 mg/kg ([3]; daily dose 250 mg/kg (*Adequate dose)): 106%
C[C@H]([C@H](C)N1CC(=O)NC(=O)C1)N1CC(=O)NC(=O)C1 [Sample B, meso-2,3-bis(3,5-dioxopiperazin-1-yl)butane, reference compound]	–	5.3	–
